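Where inhibition never reached the appropriate level, the endpoint shown equals the highest concentration tested. Otherwise, values were interpolated linearly from a five-concentration, 48-hour dose response in 96-well plates. TGI is the concentration that stops growth completely.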
Tests used:
Assay in all cases: growth of human tumour cells (NCI), 48 h
[1] = test system: UACC-62 melanoma
[2] = test system: K-562 leukemia
[3] = test system: A549 NSCLC
[4] = test system: 786-0 renal
[5] = test system: HCT-15 colon
[6] = test system: KM12 colon
[7] = test system: HCC-2998 colon
[8] = test system: NCI/ADR-RES ovarian
[9] = test system: MCF7 breast
[10] = test system: HL-60(TB) leukemia
[11] = test system: NCI-H226 lung
[12] = test system: ACHN renal
[13] = test system: OVCAR-5 ovarian
[14] = test system: RXF 393 renal
[15] = test system: MDA-MB-231 breast
[16] = test system: SK-MEL-28 melanoma
[17] = test system: SK-OV-3 ovarian
[18] = test system: IGROV1 ovarian
[19] = test system: SN12C renal
[20] = test system: UACC-257 melanoma
[21] = test system: NCI-H522 lung
[22] = test system: MDA-N
[23] = test system: SNB-19 CNS
[24] = test system: HOP-62 NSCLC
[25] = test system: M14 melanoma
[26] = test system: SF-268 CNS
[27] = test system: OVCAR-4 ovarian
[28] = test system: A498 renal
[29] = test system: SK-MEL-5 melanoma
[30] = test system: SK-MEL-2 melanoma
[31] = test system: OVCAR-3 ovarian
[32] = test system: PC-3 prostate
[33] = test system: BT-549 breast
[34] = test system: NCI-H23 lung
[35] = test system: SR leukemia
[36] = test system: OVCAR-8 ovarian
[37] = test system: U251 CNS
[38] = test system: DU-145 prostate
[39] = test system: SW-620 colon
[40] = test system: HT29 colon
[41] = test system: LOX IMVI melanoma
[42] = test system: T-47D breast
[43] = test system: UO-31 renal
[44] = test system: EKVX NSCLC
[45] = test system: HCT-116 colon
[46] = test system: MOLT-4 leukemia
[47] = test system: MDA-MB-435
[48] = test system: RPMI-8226 leukemia
[49] = test system: COLO 205 colon
[50] = test system: SF-295 CNS
[51] = test system: CAKI-1 renal
[52] = test system: MALME-3M melanoma
[53] = test system: TK-10 renal
[54] = test system: CCRF-CEM leukemia
[55] = test system: SNB-75 CNS
[56] = test system: HS 578T breast
[57] = test system: NCI-H460 lung
[58] = test system: HOP-92 NSCLC
[59] = test system: SF-539 CNS

**Q.** How did the TGI [1] turn out when `NCCCNCCCNCCCN` was run?
**A.** > 100 µM

**Q.** What about the TGI [2] of the same compound?
**A.** 72.9 µM

**Q.** And the TGI [3]?
**A.** > 100 µM

**Q.** What about the TGI [4] of the same compound?
**A.** > 100 µM

**Q.** What about the TGI [5] of the same compound?
**A.** > 100 µM

**Q.** And the TGI [6]?
**A.** > 100 µM

**Q.** And the TGI [7]?
**A.** > 100 µM

**Q.** What about the TGI [8] of the same compound?
**A.** > 100 µM

**Q.** What about the TGI [9] of the same compound?
**A.** > 100 µM

**Q.** And the TGI [10]?
**A.** > 100 µM

**Q.** What about the TGI [11] of the same compound?
**A.** > 100 µM

**Q.** And the TGI [12]?
**A.** > 100 µM

**Q.** What about the TGI [13] of the same compound?
**A.** > 100 µM

**Q.** What about the TGI [14] of the same compound?
**A.** > 100 µM

**Q.** What about the TGI [15] of the same compound?
**A.** > 100 µM

**Q.** And the TGI [16]?
**A.** > 100 µM

**Q.** And the TGI [17]?
**A.** > 100 µM

**Q.** And the TGI [18]?
**A.** > 100 µM

**Q.** And the TGI [19]?
**A.** > 100 µM

**Q.** What about the TGI [20] of the same compound?
**A.** > 100 µM

**Q.** And the TGI [21]?
**A.** > 100 µM

**Q.** And the TGI [22]?
**A.** > 100 µM

**Q.** And the TGI [23]?
**A.** > 100 µM

**Q.** What about the TGI [24] of the same compound?
**A.** > 100 µM

**Q.** What about the TGI [25] of the same compound?
**A.** > 100 µM

**Q.** What about the TGI [26] of the same compound?
**A.** 8.96 µM

**Q.** What about the TGI [27] of the same compound?
**A.** > 100 µM

**Q.** And the TGI [28]?
**A.** > 100 µM

**Q.** What about the TGI [29] of the same compound?
**A.** > 100 µM

**Q.** And the TGI [30]?
**A.** > 100 µM

**Q.** And the TGI [31]?
**A.** > 100 µM

**Q.** And the TGI [32]?
**A.** > 100 µM

**Q.** And the TGI [33]?
**A.** > 100 µM

**Q.** And the TGI [34]?
**A.** > 100 µM

**Q.** And the TGI [35]?
**A.** 44.7 µM

**Q.** And the TGI [36]?
**A.** > 100 µM

**Q.** What about the TGI [37] of the same compound?
**A.** > 100 µM

**Q.** What about the TGI [38] of the same compound?
**A.** > 100 µM

**Q.** What about the TGI [39] of the same compound?
**A.** > 100 µM

**Q.** What about the TGI [40] of the same compound?
**A.** > 100 µM

**Q.** What about the TGI [41] of the same compound?
**A.** > 100 µM

**Q.** What about the TGI [42] of the same compound?
**A.** > 100 µM

**Q.** And the TGI [43]?
**A.** > 100 µM

**Q.** And the TGI [44]?
**A.** > 100 µM

**Q.** And the TGI [45]?
**A.** > 100 µM

**Q.** And the TGI [46]?
**A.** 42.4 µM

**Q.** What about the TGI [47] of the same compound?
**A.** > 100 µM

**Q.** And the TGI [48]?
**A.** 41.1 µM

**Q.** And the TGI [49]?
**A.** > 100 µM

**Q.** What about the TGI [50] of the same compound?
**A.** > 100 µM

**Q.** And the TGI [51]?
**A.** > 100 µM

**Q.** What about the TGI [52] of the same compound?
**A.** > 100 µM

**Q.** What about the TGI [53] of the same compound?
**A.** > 100 µM

**Q.** Which TGI [1] does the source give for `COc1ccc(C(=O)/C=C/c2ccc(OCC(=N)N)cc2)cc1OC` here?
**A.** > 10 µM

**Q.** And the TGI [2]?
**A.** > 10 µM

**Q.** What about the TGI [3] of the same compound?
**A.** > 10 µM

**Q.** And the TGI [4]?
**A.** > 10 µM

**Q.** And the TGI [5]?
**A.** > 10 µM

**Q.** And the TGI [6]?
**A.** 8.31 µM

**Q.** What about the TGI [7] of the same compound?
**A.** > 10 µM

**Q.** And the TGI [9]?
**A.** > 10 µM

**Q.** And the TGI [10]?
**A.** 4.82 µM

**Q.** And the TGI [14]?
**A.** > 10 µM

**Q.** And the TGI [15]?
**A.** > 10 µM

**Q.** And the TGI [16]?
**A.** > 10 µM

**Q.** What about the TGI [17] of the same compound?
**A.** > 10 µM

**Q.** What about the TGI [54] of the same compound?
**A.** 8.86 µM

**Q.** What about the TGI [18] of the same compound?
**A.** > 10 µM

**Q.** And the TGI [19]?
**A.** > 10 µM

**Q.** And the TGI [20]?
**A.** > 10 µM

**Q.** What about the TGI [22] of the same compound?
**A.** > 10 µM

**Q.** What about the TGI [24] of the same compound?
**A.** > 10 µM

**Q.** What about the TGI [25] of the same compound?
**A.** > 10 µM

**Q.** And the TGI [26]?
**A.** > 10 µM

**Q.** And the TGI [29]?
**A.** > 10 µM

**Q.** What about the TGI [32] of the same compound?
**A.** > 10 µM

**Q.** And the TGI [34]?
**A.** > 10 µM

**Q.** What about the TGI [35] of the same compound?
**A.** 4.39 µM

**Q.** What about the TGI [36] of the same compound?
**A.** > 10 µM

**Q.** What about the TGI [38] of the same compound?
**A.** > 10 µM

**Q.** What about the TGI [39] of the same compound?
**A.** > 10 µM

**Q.** And the TGI [40]?
**A.** > 10 µM

**Q.** What about the TGI [41] of the same compound?
**A.** > 10 µM

**Q.** And the TGI [42]?
**A.** > 10 µM

**Q.** And the TGI [55]?
**A.** 9.98 µM

**Q.** And the TGI [44]?
**A.** > 10 µM

**Q.** And the TGI [48]?
**A.** > 10 µM

**Q.** What about the TGI [49] of the same compound?
**A.** > 10 µM

**Q.** What about the TGI [50] of the same compound?
**A.** > 10 µM

**Q.** What about the TGI [51] of the same compound?
**A.** > 10 µM

**Q.** What about the TGI [52] of the same compound?
**A.** > 10 µM

**Q.** And the TGI [53]?
**A.** > 10 µM

**Q.** What does the source list for `CN(C)c1ccc(-c2c(C#N)c(N)[nH]c(=S)c2C#N)cc1`?
**A.** TGI [1]: > 100 µM; TGI [2]: > 100 µM; TGI [3]: > 100 µM; TGI [56]: 35.7 µM; TGI [4]: > 100 µM; TGI [5]: > 100 µM; TGI [7]: > 100 µM; TGI [8]: > 100 µM; TGI [9]: > 100 µM; TGI [10]: > 100 µM; TGI [11]: 92.2 µM; TGI [57]: > 100 µM; TGI [12]: > 100 µM; TGI [13]: > 100 µM; TGI [14]: > 100 µM; TGI [15]: > 100 µM; TGI [16]: > 100 µM; TGI [17]: > 100 µM; TGI [54]: > 100 µM; TGI [18]: > 100 µM; TGI [19]: > 100 µM; TGI [20]: > 100 µM; TGI [21]: > 100 µM; TGI [22]: > 100 µM; TGI [23]: > 100 µM; TGI [24]: > 100 µM; TGI [25]: > 100 µM; TGI [26]: > 100 µM; TGI [27]: > 100 µM; TGI [28]: 96.2 µM; TGI [29]: > 100 µM; TGI [30]: > 100 µM; TGI [31]: > 100 µM; TGI [32]: > 100 µM; TGI [33]: > 100 µM; TGI [58]: > 100 µM; TGI [34]: > 100 µM; TGI [35]: > 100 µM; TGI [36]: > 100 µM; TGI [37]: > 100 µM; TGI [38]: > 100 µM; TGI [39]: > 100 µM; TGI [40]: > 100 µM; TGI [41]: > 100 µM; TGI [43]: > 100 µM; TGI [55]: > 100 µM; TGI [44]: > 100 µM; TGI [45]: > 100 µM; TGI [59]: > 100 µM; TGI [47]: > 100 µM; TGI [49]: > 100 µM; TGI [50]: > 100 µM; TGI [51]: > 100 µM; TGI [52]: > 100 µM; TGI [53]: > 100 µM
